Measured values taken from article PMC13237374 (Communications Chemistry, 2026).

Assays:
Type in all cases: physicochemical
[1] = Aβ42 ThT aggregation assay
Protocol: It was incubated at different concentrations in the presence of 20 μM ThT quiescently at 37 °C in 96-well half-area non-binding plates (Corning 3881), with 100 μL per well and five replicate wells per concentration. An aluminum film coating minimized evaporation. The fluorescence emission of ThT at 480 nm upon excitation at 440 nm was monitored using a FLUOstar Omega plate-reader (BMG Labtech GmbH, Germany) using a cycle time of 300 s with 40 flashes per reading and 0.2 s settling time per cycle.

[2] = Dynamic light scattering (DLS) of medin
Protocol: Samples were withdrawn at different time intervals, and the particle size distribution was monitored at 20 °C in a Malvern Zetasizer Nano instrument (Malvern Instruments Limited, United Kingdom) at 70 µL volume (N = 3, n = 3). Two outliers were removed manually before data analysis.

[3] = Global kinetic fitting (AmyloFit 2.0) of unseeded, low-seeded and high-seeded medin ThT data
Protocol: (§1) After removing outliers manually, the resultant data from kinetic assays were normalized and analyzed using the online platform AmyloFit 2.0[46] made for global aggregation kinetic data-fitting. All data representations have been produced in GraphPad Prism 2.0. Half-times of unseeded aggregation assays were calculated in the AmyloFit 2.0 platform. For comparison of aggregation half-times of unseeded and low-seeded reactions, data were normalized and fitted using GraphPad Prism 2.0 with2 y=ymin+ymax−ymin/1+t1/2/t^c where y is the normalized ThT fluorescence and c is a constant. All data were fitted with the corresponding model using 50 basin hops to ensure convergence, and the fit with the least MSE was considered the best fit. Two models were used with the consideration of the presence or absence of seeds: secondary nucleation dominated[11] and fragmentation dominated mechanisms. […] The average fibril length for pre-formed aggregate seeds was assumed to be 10,000 monomers.

[4] = Unseeded ThT aggregation kinetics of medin monomer; settings: for Primary nucleation order nc, fit result: unseeded assay fitted individually
Protocol: After removing outliers manually, the resultant data from kinetic assays were normalized and analyzed using the online platform AmyloFit 2.0[46] made for global aggregation kinetic data-fitting. […] Half-times of unseeded aggregation assays were calculated in the AmyloFit 2.0 platform. For comparison of aggregation half-times of unseeded and low-seeded reactions, data were normalized and fitted using GraphPad Prism 2.0 with2 y=ymin+ymax−ymin/1+t1/2/t^c where y is the normalized ThT fluorescence and c is a constant. All data were fitted with the corresponding model using 50 basin hops to ensure convergence, and the fit with the least MSE was considered the best fit. Two models were used with the consideration of the presence or absence of seeds: secondary nucleation dominated[11] and fragmentation dominated mechanisms[45]. […] The average fibril length for pre-formed aggregate seeds was assumed to be 10,000 monomers[46].

[5] = Critical concentration of medin aggregation from ThT amplitude; settings: half-maximal point of sigmoidal fit of ThT amplitude at 0–40 nM monomer; 20 µM ThT, pH 7.4, 37 °C, quiescent
[6] = Salt (NaCl) titration of medin ThT aggregation kinetics; settings: [Medin] 75 nM, N = 1, n = 5
Protocol: (§2) All assays were carried out at 37 °C in quiescent conditions at 100 µL sample volume per well in 96-well half-area non-binding plates (Corning 3881), with an aluminum film coating to minimize evaporation. […] ThT fluorescence emission at 480 nm, when excited at 440 nm, was monitored using a FLUOstar Omega plate-reader (BMG Labtech GmbH, Germany) using a cycle time of 180 s with 40 flashes per reading and 0.2 s settling time per cycle. The unseeded reactions were repeated thrice using three different batches of protein.
For salt titration experiments, 20 mM NaPi 1 M NaCl 0.2 mM EDTA pH 7.4 was diluted to the final reaction mixtures at final NaCl concentrations of 0, 40, 150, and 500 mM before incubation in replicate wells of a non-binding plate and monitoring of aggregation kinetics as described above.
as §1

[7] = Low-seeded (1% seed:monomer) ThT aggregation assay of medin
Protocol: After removing outliers manually, the resultant data from kinetic assays were normalized and analyzed using the online platform AmyloFit 2.0[46] made for global aggregation kinetic data-fitting. […] Half-times of unseeded aggregation assays were calculated in the AmyloFit 2.0 platform. For comparison of aggregation half-times of unseeded and low-seeded reactions, data were normalized and fitted using GraphPad Prism 2.0 with2 y=ymin+ymax−ymin/1+t1/2/t^c where y is the normalized ThT fluorescence and c is a constant. […]

[8] = High-seeded (20–50% seed:total protein) ThT aggregation assay of medin; settings: for Elongation rate constant k+, fit result: high-seeded assay fitted individually
Protocol: as §2
Amyloid aggregation was monitored using 20 µM ThT in replicate wells. The overnight-grown fibrils were sonicated for 15 s at 50% duty cycle and 10% power using a microtip sonicator (Bandelin Sonopuls, Germany) to produce seeds for subsequent seeded aggregation assays.
as §1

[9] = global data analysis, fragmentation dominated
[10] = global data analysis, secondary nucleation dominated
[11] = unseeded assays, N = 3, fragmentation dominated, no seed
[12] = unseeded assays, N = 3, secondary nucleation dominated, no seed
[13] = secondary nucleation dominated model

What does the source list for “Aβ42: human amyloid-β 42 peptide, recombinantly produced, comparator amyloid”?
concentrations at which no aggregation was observed within 24 hours ([1]; 20 mM NaPi 0.2 mM EDTA pH 7.4, 37 °C, quiescent, 20 µM ThT): below 117 nM; aggregation half-time t1/2 ([1]; […] Aβ42, pH 7.4, 37 °C): 1.9 h

For “medin: 50-residue peptide cleaved from lactadherin, forms aortic medial amyloid; produced recombinantly in E. coli”, which “hydrodynamic diameter of aggregates” value ([2]; 10 µM medin after quiescent incubation at pH 7.4 and 37 °C, DLS) is on record?
Its value is 200–3200 nm.

And the “incubation time until first traces of higher molecular weight species” value ([2]; 10 µM medin monomer on ice, DLS)?
Its value is “at least 1.5 hours”.

What about the “hydrodynamic diameters of monomeric and initial oligomeric species” value ([2]; 10 µM medin, DLS at 20 °C, N = 3, n = 3) of the same substance?
The value was 0.4–6 nm.

What about the mean hydrodynamic diameter ([2]; purely monomeric medin, 10 µM in aggregation assay buffer, freshly eluted) of the same substance?
The mean hydrodynamic diameter was 0.67 nm.

What about the “primary nucleation reaction order nc” value ([3]; global analysis of all assays) of the same substance?
Its value is about 1.

And the “primary nucleation rate constant kn” value ([3]; global analysis of unseeded, low-seeded and high-seeded data, saturated secondary nucleation (n2 = 0) or fragmentation model)?
The value was 1e-08 s⁻¹.

What about the “Elongation rate constant k+, fit result” value [3, 9] of the same substance?
The value was 9.53e+06 M⁻¹ s⁻¹.

And the “Primary nucleation order nc, fit result” value [3, 9]?
Its value is ~ 1.

And the “Primary nucleation rate constant kn, fit result” value [3, 9]?
Its value is 1.15e-08 s⁻¹.

And the “Secondary pathway rate constant k−, fit result” value [3, 9]?
The value was 3.14e-07 s⁻¹.

And the “Elongation rate constant k+, fit result” value [3, 10]?
The value was 9.46e+06 M⁻¹ s⁻¹.

And the “Primary nucleation order nc, fit result” value [3, 10]?
The value was ~ 1.

What about the “Primary nucleation rate constant kn, fit result” value [3, 10] of the same substance?
The value was 1.13e-08 s⁻¹.

And the “Secondary nucleation order n2, fit result” value [3, 10]?
The value was ~ 0.

What about the “Secondary pathway rate constant k2, fit result” value [3, 10] of the same substance?
The value was 3.23e-07 s⁻¹.

What about the “aggregation of 10 nM medin monomer” value ([4]; 10 nM monomer, over 16 h, ThT) of the same substance?
The value was “no aggregation”.

What about the “lowest concentration at which amyloid fibrils form spontaneously” value ([4]; physiological pH and temperature, quiescent solution) of the same substance?
Its value is 25 nM.

And the “Primary nucleation order nc, fit result” value ([4]; fragmentation dominated, no seed)?
Its value is ~ 1.

And the “Primary nucleation order nc, fit result” value ([4]; secondary nucleation dominated, no seed)?
Its value is ~ 1.

And the “primary nucleation reaction order nc” value ([4]; unseeded assay, secondary nucleation- or fragmentation-dominated spontaneous aggregation model)?
Its value is ~ 1.

What about the “Combined rate constant k+kn, average value” [4, 11] of the same substance?
The value was 7.3 M-1s-2.

And the “Combined rate constant k+k−, average value” [4, 11]?
Its value is 1.7 M-1s-2.

What about the “Primary nucleation reaction order nc, average value” [4, 11] of the same substance?
The value was 1.4.

And the “Combined rate constant k+k2, average value” [4, 12]?
The value was 22.3 M-1s-2.

What about the “Primary nucleation reaction order nc, average value” [4, 12] of the same substance?
The value was ~ 1.

And the “Secondary nucleation reaction order n2, average value” [4, 12]?
Its value is ~ 0.

What about the “Combined rate constant k+kn, average value” ([4]; unseeded assays, biological replicates N = 3 (different batches), secondary nucleation dominated, no seed) of the same substance?
Its value is 0.1 M-1s-2.

And the “critical concentration of medin aggregation” value [5]?
The value was ~ 14 nM.

What about the “Mean t1/2” value ([6]; [NaCl] 0 mM) of the same substance?
Its value is 3.2 h.

What about the “Mean t1/2” value ([6]; [NaCl] 40 mM) of the same substance?
The value was 2.4 h.

What about the “Mean t1/2” value ([6]; [NaCl] 150 mM) of the same substance?
The value was 2.5 h.

What about the “Mean t1/2” value ([6]; [NaCl] 500 mM) of the same substance?
The value was 2.4 h.

And the “rate constant of the monomer-independent secondary pathway (k2 or k−)” value ([7]; 50–[…] monomer, pH 7.4, 37 °C, 20 µM ThT)?
Its value is 4e-08 s⁻¹.

And the “secondary nucleation reaction order n2” value [7, 13]?
Its value is ~ 0.

And the elongation rate constant ([8]; as printed in the Introduction, physiological pH and temperature in vitro)?
Its elongation rate constant is ~ 10^7 s^−1.

What about the “Elongation rate constant k+, fit result” value ([8]; fragmentation dominated model) of the same substance?
The value was 5.4e+07 M⁻¹ s⁻¹.

What about the “Elongation rate constant k+, fit result” value [8, 13] of the same substance?
The value was 5.34e+07 M⁻¹ s⁻¹.

And the “elongation rate constant k+” value ([8]; high-seeded: 187.5–500 nM monomer + 187.5 nM pre-formed fibrils (20–50% seed:total protein), pH 7.4, 37 °C, quiescent, 20 µM ThT, AmyloFit fit of first phase)?
Its value is 5e+07 M⁻¹ s⁻¹.
